Assay results from patent US20240148819A1, “COMPOUNDS FOR USE IN THE TREATMENT OF SINUSITIS, PNEUMONIA OR OTITIS” (PHARMA HOLDINGS AS, priority 2021, published 2024).
In brackets after ≈: the same amount, converted by molar mass. Several values for one entry are separate records, joined by “and”; a condition that tells them apart may be missing. Equal values may be shown once. Read-outs that look alike come from different tables or passages of the source.

Columns and labels:
[1] = test system: Influenza A virus (IAV; A/WSN/33); format: cell-based
[2] = test system: HeLa cells; assay: Parallel test without virus for residual cytotoxicity (Example 7); format: cell-based, human; settings: 3% LTX-109 (w/v) or 0.25% SDS, after dilution (50 μl in 5 ml), no virus
Protocol: (§7) A parallel test where the same procedure was carried out in the absence of virus was included to determine any residual cytotoxic effect of the formulation on the assay cells.

[3] = test system: Haemophilus influenzae
Protocol: (§1) Bacterial and fungal isolates used in this study were from various sources worldwide stored at GR Micro Ltd. and maintained, with minimal sub-culture, deep frozen at −70° C. as a dense suspension in a high protein matrix of undiluted horse serum.
(§2) Minimum inhibitory concentration (MIC) of LTX-109 was determined using the following microbroth dilution methods for antimicrobial susceptibility testing published by the Clinical and Laboratory Standards Institute (CLSI, formerly NCCLS): • M7-A6 Vol. 23 No. 2 Jan. 2003 Methods for Dilution Antimicrobial Susceptibility Tests for Bacteria that Grow Aerobically; Approved Standard-Sixth Edition. National Committee for Clinical Laboratory Standards. • M100-S15 Vol. 25 No 1. January 2005 Performance Standards for Antimicrobial Susceptibility Testing; Fifteenth Informational Supplement. Clinical and Laboratory Standards Institute • M11-A6 Vol. 24 No. 2 Methods for Antimicrobial Susceptibility Testing of Anaerobic Bacteria; Approved Standard-Sixth Edition. National Committee for Clinical Laboratory Standards. • M27-A2 Vol. 22 No. 15 Reference Method for Broth Dilution Antifungal Susceptibility Testing of Yeasts; Approved Standard-Second Edition. National Committee for Clinical Laboratory Standards. • M38-A Vol. 22 No. 16 Reference Method for Broth Dilution Antifungal Susceptibility Testing of Filamentous Fungi; Approved Standard. National Committee for Clinical Laboratory Standards.
(§3) MIC estimations were performed using wet plates, containing the LTX-109, prepared at GR Micro Ltd.
(§4) Following normal practice all the plates containing Mueller-Hinton broth were prepared in advance, frozen at −70° C. on the day of preparation and defrosted on the day of use. Fungal, Haemophilus and anaerobic MIC determinations were all performed in plates prepared on the same day.

[4] = test system: Moraxella catarrhalis
Protocol: as §1, §2, §3
(§5) Cation-adjusted Mueller-Hinton broth (Oxoid Ltd., Basingstoke, UK and Trek Diagnostic Systems Ltd., East Grinstead, UK) (supplemented with 5% laked horse blood for Streptococcus spp.) was used for aerobic bacteria, with an initial inoculum of approximately 10^5 colony-forming units (CFU)/mL.
as §4

[5] = test system: Streptococcus pneumoniae
Protocol: as §1, §2, §3, §5, §4

[6] = test system: Streptococcus pyogenes; settings: Streptococcus pyogenes - macrolide (MLS) resistant clinical isolate
Protocol: as §1, §2, §3, §5, §4

[7] = test system: Aspergillus niger; settings: Aspergillus niger - G. R. Micro collection
Protocol: as §1, §2, §3
(§6) Yeast and filamentous fungal MIC were performed in MOPS buffered RPMI 1640 medium (MOPS buffer obtained from Sigma Aldrich Ltd., RPMI 1640 obtained from Invitrogen Ltd, Paisley, Scotland). The yeast inocula were in the range 7.5×10^2-4×10^3 CFU/mL and the filamentous fungi approximately 8×10^3-1×10^5 CFU/mL.
as §4

[8] = test system: Candida albicans
Protocol: as §1, §2, §3, §6, §4

[9] = test system: Candida krusei; settings: Candida krusei - ATCC6258 - reference strain
Protocol: as §1, §2, §3, §6, §4

[10] = test system: Candida parapsilosis; settings: Candida parapsilosis - ATCC90018 - reference strain
Protocol: as §1, §2, §3, §6, §4

[11] = test system: Candida tropicalis; settings: Candida tropicalis - ATCC750 - reference strain
Protocol: as §1, §2, §3, §6, §4

[12] = test system: Mycoplasma pneumoniae
Protocol: Two library strains of Mycoplasma pneumoniae were used. These strains were stored at GR Micro Ltd. and maintained, with minimal sub-culture, deep frozen at −70° C. as a dense suspension in a high protein matrix of undiluted horse serum.
MIC determination was carried out using a broth microdilution method in Mycoplasma Broth Base (Oxoid Ltd, Hampshire, UK), prepared according to the manufacturer's instructions.

[13] = test system: MDCK-II cells; settings: 1% LTX-109 (w/v) in PBS, 1 h, after filtration, no virus; dilution up to which cytotoxicity on MDCK-II cells was seen
Protocol: as §7

[14] = test system: Hep2 cells; settings: 1 h, after filtration, no virus
Protocol: as §7

[15] = test system: Vero cells; settings: 1% LTX-109 (w/v), 1 h, after filtration, no virus
Protocol: as §7

[16] = test system: HeLa cells; settings: 1% LTX-109 (w/v) or 0.25% SDS, after filtration, no virus, dilution showing cytotoxicity
Protocol: as §7

Which Log [1] does the source give for `CC(C)(C)c1cc(C(C)(C)C)c2[nH]c(C(C)(C)C)c(CC(NC(=O)C(N)CCCNC(=N)N)C(=O)NC(CCCNC(=N)N)C(=O)NCCc3ccccc3)c2c1` (centres unmarked) [LTX-109] here?
Its Log is 1.20.

What about the Percentage [1] of the same compound?
Its Percentage is 99.9% and 99.969%.

What about the Cytotoxicity [2] of the same compound?
Its Cytotoxicity is “Neat”.

And the MIC ([3]; Haemophilus influenzae - β-lactamase negative clinical isolate)?
Its MIC is 8 µg/mL (≈ 10.2 µM).

And the MIC ([3]; Haemophilus influenzae - β-lactamase negative, ampicillin resistant)?
The MIC was 8 µg/mL (≈ 10.2 µM).

And the MIC ([3]; Haemophilus influenzae - β-lactamase positive clinical isolate)?
The MIC was 8 µg/mL (≈ 10.2 µM).

What about the MIC ([4]; Moraxella catarrhalis - reduced fluoroquinolone susceptibility clinical isolate) of the same compound?
Its MIC is 8 µg/mL (≈ 10.2 µM).

And the MIC ([4]; Moraxella catarrhalis - β-lactamase positive clinical isolate)?
The MIC was 4 µg/mL (≈ 5.08 µM).

What about the MIC ([5]; Streptococcus pneumoniae - multi-drug resistant clinical isolate) of the same compound?
The MIC was 32 µg/mL (≈ 40.6 µM).

What about the MIC ([5]; Streptococcus pneumoniae - penicillin intermediate clinical isolate) of the same compound?
Its MIC is 32 µg/mL (≈ 40.6 µM).

And the MIC ([5]; Streptococcus pneumoniae - penicillin resistant clinical isolate)?
Its MIC is 16 µg/mL (≈ 20.3 µM).

What about the MIC ([5]; Streptococcus pneumoniae - penicillin susceptible clinical isolate) of the same compound?
The MIC was 32 µg/mL (≈ 40.6 µM).

And the MIC [6]?
The MIC was 16 µg/mL (≈ 20.3 µM).

And the MIC [7]?
The MIC was 8 µg/mL (≈ 10.2 µM).

And the MIC ([8]; Candida albicans - ATCC24433 - reference strain)?
The MIC was 8 µg/mL (≈ 10.2 µM).

And the MIC ([8]; Candida albicans - ATCC90028 - reference strain)?
Its MIC is 8 µg/mL (≈ 10.2 µM).

What about the MIC [9] of the same compound?
The MIC was 4 µg/mL (≈ 5.08 µM).

What about the MIC [10] of the same compound?
Its MIC is 16 µg/mL (≈ 20.3 µM).

What about the MIC [11] of the same compound?
Its MIC is 4 µg/mL (≈ 5.08 µM).

And the MIC ([12]; one of the library strains of Mycoplasma pneumoniae)?
Its MIC is 32 µg/mL (≈ 40.6 µM).

And the MIC ([12]; the other of the library strains of Mycoplasma pneumoniae)?
The MIC was 16 µg/mL (≈ 20.3 µM).

And the “With Filtration (cytotoxicity)” value [13]?
Its value is “Up to 10^−1”.

And the “With Filtration (cytotoxicity)” value ([14]; 0.1% LTX-109 (w/v))?
The value was “No cytotoxicity”.

And the “With Filtration (cytotoxicity)” value ([14]; 1% LTX-109 (w/v))?
Its value is “Up to 10^−1”.

What about the “With Filtration (cytotoxicity)” value [15] of the same compound?
Its value is “Up to 10^−1”.

And the Cytotoxicity [16]?
Its Cytotoxicity is “Neat”.
